Source: patent publication US8688387B2, “Method for the determination of intra- and intermolecular interactions in aqueous solution” (Bayer CropScience AG, priority 2006, dated 2014)

Legend:
helix [1] = conditions: aqueous solution, compared to the helices with thymidin; cited from earlier work
helix [2] = assay: Destabilization of a helix in which thymidin is replaced; conditions: corresponding to the 16 kJ/mol destabilization
Description: The importance of a complete H-bond network in nucleotide recognition has been investigated. Molecular recognition usually involves several H-bonds. The influence of unsatisfied interfacial H-bond functions can be seen in the destabilization of a helix in which thymidin is replaced by difluortoluoldesoxynucleosid. The experiments have shown that these helices exist in aqueous solution but are destabilized by 16 kJ/mol compared to the helices with thymidin (Moran et al., J. Am. Chem. Soc. 1997, 119: 2056-2057). The authors conclude that the specificity of base pair recognition may not be due to H-bonding but to space filling since the modified base is incorporated into the double helix even though the H-bond cannot be made. […] This value agrees well with the mismatched pairing observed for the incorporation of nucleotides into DNA by polymerase enzymes (1 in 10^3-10^5) (Loeb and Kunkel, Annu. Rev. Biochem. 1982: 52, 429) and the preference of correct tRNA compared to near cognate tRNA in the codon:anticodon recognition (1 in 10^−3.5) (Thompson and Karim, Proc. Natl. Acad. Sc. U.S.A. 1982, 79: 4922-26).

Cc1cc([C@H]2C[C@H](O)[C@@H](CO)O2)c(F)cc1F [difluortoluoldesoxynucleosid]
destabilization of helices (helix [1]): 3.82 kcal/mol | reduced affinity (helix [2]): 1000-10000 times
